Tested on: leukocyte rolling in post-capillary venules of the cremaster muscle
Details: topical, LPS-induced rolling; FIG. 2 and 3

| Substance | inhibition of leukocyte rolling (in words) |
| --- | --- |
| Ile1-Pro2-Arg3-Cys4-Arg5-Lys6-Met7-Pro8-Gly9-Val10-Ala11-Met12-Cys13 [SEQ ID NO: 10] | not efficient |
| Cys1-Arg2-Lys3-Met4-Pro5-Gly6-Val7-Lys8-Met9-Cys10 [SEQ ID NO: 12] | maintained inhibitory activity |

From patent publication US8304382B2, “Anti-inflammatory and anti-allergic cyclic peptides” (Cristalia Productos Quimicos Farmaceuticos Ltda., priority 2006, dated 2012)
